The source of these data is US20070265238A1, “METHOD FOR ACCELERATING REENTRAINMENT OF A CIRCADIAN RHYTHM” (priority 2006, published 2007).

SMILES strings stand for the structures.

The subject of this experiment is body temperature rhythms. Description: Reentrainment of body temperature circadian rhythm after eastward jet travel across 6 time zones (Detroit to Vienna). The class given is in vivo, human. The settings on record: applied beneath nostrils each morning on awakening; for length of time to reestablish stable body temperature rhythms: women, vs control vehicle (mineral oil and clove oil), FIG. 1. On the procedure: This experimental involved 15 subjects who were traveling from Detroit, Michigan to Vienna, Austria by air, a journey which spanned 6 time zones. The subjects comprised 8 women and 5 men aged 18-19 and 2 women […]. Two groups of compositions were prepared. The first comprised an experimental formulation containing 20 micrograms of 4,16-androstadien-3-one dissolved in a mixture of mineral oil and clove oil. A second composition comprising a control/placebo consisted of the mineral oil and clove oil. The 2 compositions were each packaged in 5 ml and supplied to selected test subjects along with cotton-tipped applicators. The test and control materials were randomly distributed, and participants were unaware of which composition they had obtained.
Upon arrival in Vienna, each participant was directed to place a small amount of their particular composition directly beneath their nostrils with a new cotton applicator immediately upon awakening each morning. The participants were directed to allow the compositions to remain on their skin for at least an hour.
External temperature monitors (iButton, Inc., Pittsburgh, Pa.) were affixed to each of the subjects with a gauze protective layer between the skin and the monitoring device. The monitors were covered with neoprene material for insulation against environmental temperature interference and held in place with a waterproof medical bandage which was changed every 3 days or as necessary. The monitoring devices were set to acquire temperature every 10 minutes throughout the entire period of the experiment and for a 3-day period prior to travel. Participants also kept daily event logs to monitor the timing of activities that could influence temperature data such as sleep and wake times, showers, exercise and naps. […]
Data were analyzed to determine the length of time needed for core temperature rhythms to reentrain with the new time schedule, returning to a phase angle of entrainment similar to that recorded before travel. […]

Regarding `C[C@@]12C=CC[C@H]1[C@@H]1CCC3=CC(=O)CC[C@]3(C)[C@H]1CC2` [4,16-androstadien-3-one], the “length of time to reestablish stable body temperature rhythms” value is listed as “accelerate reestablishment of body temperature rhythms”. Further, the “reentrainment rate of body temperature rhythms” value (men, vs control vehicle) is recorded as “no effects”. In addition, where the note is “listed as pheromone”, the “length of time to reestablish stable body temperature rhythms” value is “reentrained significantly faster”.
